For assay [1], the system named is P. aeruginosa 1409. The experiment in a line: Membrane permeabilization assay (propidium iodide). The note with it: 1 h at 25°C in LB, then PI 10 μg/mL 30 min, fluorescence microscope. Format: cell-based, Pseudomonas aeruginosa. The protocol: Then, PI was added to a final concentration of 10 μg/mL. After 30 min of incubation at 25°C, the cells were washed 3 times with PBS and immediately imaged with a fluorescence microscope (Olympus, Japan) (Yu et al., [2015]).
Figure 3 Bacterial plasma membrane permeabilization assay of cathelicidin-BF. Cathelicidin-BF and levofloxacin were incubated with MDR P. aeruginosa in Luria-Bertani medium at final concentrations of 4 × MIC (minimal inhibitory concentration) or ¼ × MIC. After incubation at 25°C for 1 h, bacteria were collected by centrifugation at 3,000 × g for 5 min and resuspended with PBS. The DNA-binding fluorescent dye PI was added to a final concentration of 10 μg/mL. After 30 min incubation at 25°C, the cells were washed 3 times with PBS and immediately imaged using a fluorescence microscope.

Assay [2] has as its system P. aeruginosa 1409. The experiment in a line: Minimal inhibitory concentration (given as multiples of MIC). It counts as cell-based, Pseudomonas aeruginosa. The conditions noted are these: MDR clinical isolate; MIC itself not given, only this multiple.
Assay [3] deals with P. aeruginosa 1409. The note with it: treated vs untreated, iTRAQ.
[4] abbreviates: cathelicidin-BF at 1/2 MIC (4 μg/mL), 37°C, 2 h.
[5] abbreviates: cathelicidin-BF change not categorized as differentially expressed.

Take `C[C@H]1COc2c(N3CCN(C)CC3)c(F)cc3c(=O)c(C(=O)O)cn1c23` [levofloxacin, reference compound]: the “integrity of bacterial membranes, PI staining at 4 × MIC” value in the assay on P. aeruginosa 1409 [1] (4 × MIC (cathelicidin-BF 32 μg/mL, levofloxacin 64 μg/mL)) is reported as “showed red fluorescence”. In the assay on P. aeruginosa 1409 [1] (¼ × MIC (cathelicidin-BF 2 μg/mL, levofloxacin 4 μg/mL)), the “integrity of bacterial membranes, PI staining at ¼ × MIC” value is “no red dyes were detected”. Also, the “4 × MIC” value with P. aeruginosa 1409 [2] stood at 64 µg/mL. In the assay on P. aeruginosa 1409 [3] (setting [4]), the “expression of protein Q9HVA1 (acetolactate synthase isozyme III small subunit)” value is reported as “overexpressed” and the “expression of protein Q9I3S7 (likely decarboxylase)” value is “overexpressed”. In the assay on P. aeruginosa 1409 [3] (setting [5]), the “expression of protein Q9HTV3 (3-octaprenyl-4-hydroxybenzoate carboxy-lyase)” value is on record as “downregulated” and the “expression of protein Q9I298 (putative 3-methylglutaconyl-ConA hydratase)” value is “downregulated”. In the assay with P. aeruginosa 1409 [3] (levofloxacin change not categorized as differentially expressed), the “expression of protein Q9I5V3 (multifunctional CCA protein)” value is recorded as “downregulated”.

The values above are taken from publication PMC5681922, “Systemic Responses of Multidrug-Resistant Pseudomonas aeruginosa and Acinetobacter baumannii Following Exposure to the Antimicrobial Peptide Cathelicidin-BF Imply Multiple Intracellular Targets” (Frontiers in Cellular and Infection Microbiology, 2017).
